Values of other authors in US20090082738A1, “Natural Anti-Inflammatory Agents for Reducing Pain” (priority 2007, published 2009).

Tests used:
[1] = test system: moderate or severe knee arthritis population; details: 1500 mg of glucosamine

| Structure (SMILES) | clinical efficacy compared with Celebrex [1] | inhibition of cyclooxygenase (COX) (cyclooxygenase (COX)) |
| --- | --- | --- |
| N[C@H]1C(O)O[C@H](CO)[C@@H](O)[C@@H]1O (some centres unmarked) [glucosamine] | superior to the prescription medication Celebrex |  |
| C/C=C(/C=O)[C@@H](CC=O)CC(=O)OCCc1ccc(O)cc1 [Oleocanthal] |  | non-selective inhibitor of cyclooxygenase (COX) |
